From patent publication US10071100B2, “Therapeutic nanoparticles comprising a therapeutic agent and methods of making and using the same” (PFIZER INC., priority 2014, dated 2018)

Tests used:
[1] = physchem; format: physicochemical
From the text: It is described in U.S. Pat. No. 8,039,469, the contents of which are incorporated by reference. […] As indicated above, it is a base. It is a protonatable nitrogen-containing therapeutic agent. As used herein, a “protonatable nitrogen-containing therapeutic agent” includes any pharmaceutically active agent that contains at least one nitrogen-containing functional group that is capable of being protonated. In other words, the therapeutic agent has a nitrogen atom thereon which has a lone pair of electrons that could potentially accept a proton. The pKa refers to the acid dissociation constant on a logarithmic scale of the corresponding protonated form of the therapeutic agent. In other words, if a proton (H+) were present at the nitrogen atoms where there is an arrow indicated, the therapeutic agent would have the pKa indicated below: […]

[2] = pharmacokinetics of nanoparticles in Wistar Han rats; format: in vivo; conditions: rat; male Wistar Han rats, intravenous 1 mg/kg bolus, plasma
Procedure: The protocol was as follows: Male Wistar Han rats (approximately six weeks in age; n=4/group) with indwelling jugular vein cannulae were dosed intravenously with a 1 mg/kg bolus of Formulation A, B, and C nanoparticles or Formulation A, B, and C nanoparticles diluted in 0.9% saline. At various times after dosing, serial blood collections were made from the jugular vein cannulae and plasma concentrations of therapeutic agent were quantitated by LC-MS/MS.

[3] = pKa (acid dissociation constant); format: physicochemical; conditions: protonated form of the therapeutic agent; read-out: first pKa
From the text: It is described in U.S. Pat. No. 8,039,469, the contents of which are incorporated by reference. […] As indicated above, it is a base. It is a protonatable nitrogen-containing therapeutic agent. As used herein, a “protonatable nitrogen-containing therapeutic agent” includes any pharmaceutically active agent that contains at least one nitrogen-containing functional group that is capable of being protonated. In other words, the therapeutic agent has a nitrogen atom thereon which has a lone pair of electrons that could potentially accept a proton. The pKa refers to the acid dissociation constant on a logarithmic scale of the corresponding protonated form of the therapeutic agent. In other words, if a proton (H+) were present at the nitrogen atoms where there is an arrow indicated, the therapeutic agent would have the pKa indicated below:
The pKa information for the most basic nitrogen (bottom) and a less basic but still protonatable nitrogen (upper) are shown above. ACD is a calculated number using standard techniques known in the art, such as described in Liao C Z, Nicklaus M C. Comparison of nine programs predicting pK(a) values of pharmaceutical substances. J. Chem. Inform. Model. 49(12):2801-2812, 2009. It has to be understood that the pKa of the therapeutic agent refers to the protonated form thereof. […]

logD ([1]; pH 6.5): 0.212 | logD ([1]; pH 7.4): 1.08 | AUC [2]: 920 ng·h/mL | half-life [2]: 13.2 h | pKa [3]: ~6.7
SMILES: CN(C)C1CCN(C(=O)c2ccc(NC(=O)Nc3ccc(-c4nc(N5CCOCC5)nc(N5CCOCC5)n4)cc3)cc2)CC1 [therapeutic agent, 1-(4-{[4-(dimethylamino)piperidin-1-yl]carbonyl}phenyl)-3-[4-(4,6-dimorpholin-4-yl-1,3,5-triazin-2-yl)phenyl]urea]
